Measurements taken from US10231472B2, “Zilpaterol animal premix formulation” (Intervet Inc., priority 2015, dated 2019).
Where a name gives a salt, the structure may show the parent alone.

Columns and labels:
[1] = Stability of zilpaterol in liquid vehicles at high temperature; assay type: physicochemical
Description: (§1) However since solubility of the drug was poor in propylene glycol, a significant additional amount of propylene glycol was needed (27.6%) to fully solubilize the drug. Since propylene glycol is viscous/sticky, this larger amount of propylene glycol could not be added to the corn cob carrier without causing the product to be sticky which results in poor flow properties. To address this problem, a premix containing only 6% propylene glycol and 2% water was prepared by heating the liquid mixture of zilpaterol HCl to a high temperature and creating a supersaturation of zilpaterol HCl in the propylene glycol/water vehicle. This was successful in fully solubilizing the zilpaterol HCl without needing to add additional liquids. […] When this hot supersaturated solution is added to a dry carrier, it is easily absorbed and mixed and the combination becomes dry and free flowing. Excellent uniformity is obtained, and product safety is improved since free solid drug particles are avoided.
Propylene glycol is the preferred solvent.

[2] = Solubility of zilpaterol HCl in solvents; assay type: physicochemical
Description: For some drugs that have a good solubility profile formulations can be prepared by dissolving the drug into a solvent and then mixing the resulting solution with additional excipient/carriers to prepare a suitable dosage form (premix, tablets, etc.). This approach works best when the drug concentration is very low and the drug has good solubility. If an excess amount of liquid is added during manufacture a wet mass can be formed that is difficult to process and needs to be dried to remove excess solvent. Drying adds additional cost and complexity to the manufacturing process.
as §1

SMILES: CC(C)NC1CCn2c(=O)[nH]c3cccc(c32)C1O (centres unmarked) [Zilpaterol HCl, 4,5,6,7-tetrahydro-7-hydroxy-6-(isopropylamino) imidazo[4,5,1-jk]-[1]benzazepin-2(1H)-one]
- stability in propylene glycol alone ([1]; after 45 days at 60° C., propylene glycol alone): 95.2%
- stability in solution, temperature ([1]; supersaturated solution in propylene glycol/water vehicle): ≤ 90 °C
- solubility of the drug in premix liquid ([2]; premix with 0.8% zilpaterol HCl, 6% propylene glycol and 2% water, without heating): not fully soluble
- solubility in propylene glycol ([2]; propylene glycol): 2.9%
- solubility ([2]; water): 130 mg/mL
